Source: publication PMC10874388, “Cyclic peptides discriminate BCL-2 and its clinical mutants from BCL-XL by engaging a single-residue discrepancy” (Nature Communications, 2024)
“And” between values parts separate entries of the source, which are not always exact repeats. Equal values may be shown once.

Columns and labels:
RS4:11 cells = experiment: Cell viability assay (CellTiter-Glo), RS4:11; type: cell-based; settings: for raw luminescence reading / inhibition rate: RS4:11; for raw luminescence reading: listed as ABT199
In short: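 Compounds added in serum-free medium for 4 h (RS4:11: 6 h), then FBS brought to 10% and incubation continued to 24 h or 48 h total at 37 °C, 5% CO2. Viability by CellTiter-Glo 2.0 luminescence; IC50 calculated.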

A549 cells (control) = experiment: Cell viability assay (CellTiter-Glo), normal A549 (control); type: cell-based; settings: for luminescence reading, everage: mean of 6 wells
Description: The cell lines Jurkat (TIB-152), El4 (TIB-39), Daudi (ccl-213), RS4:11 (crl-1873), A549 (ccl-185), HepG2 (hb-8065) and PANC-1 (crl-1469) were purchased from ATCC (American Type Culture Collection), and MGC-803 (C6582) was purchased from Beyotime (https://www.beyotime.com/product/C6582.htm). […] Daudi and RS4:11 cells were cultured in RPMI-1640 medium (HyClone, SH30809.01) and 10% FBS (Gibco, 10099-141), whereas HepG2, MGC-803 and PANC-1 cells were cultured in MDEM (HyClone, SH30243.01). Cells were maintained at 37 °C under a humidified, 5% (v/v) CO2-containing atmosphere.
Cell viability was measured using CellTiter-Glo® 2.0 Reagent (Promega, G9242). […] After different inhibitors were added into serum-free medium and cultured for 4 h (RS4:11 for 6 h), FBS were supplemented to 10% and then incubated totally for 24 h or 48 h. Finally, the IC50 values were calculated based on measurements using a microplate reader (Thermo, Varioskan LUX). Statistical analysis was performed using software GraphPad Prism 7.0.

[1] = control A549, ABT-199 0.390625 uM
[2] = control A549, ABT-199 0.78125 uM
[3] = control A549, ABT-199 1.5625 uM

CC1(C)CCC(CN2CCN(c3ccc(C(=O)NS(=O)(=O)c4ccc(NCC5CCOCC5)c([N+](=O)[O-])c4)c(Oc4cnc5[nH]ccc5c4)c3)CC2)=C(c2ccc(Cl)cc2)C1 [venetoclax]
inhibition at 0.000390625 µM (RS4:11 cells; Homo sapiens, RS4-11, RS4:11, 0.390625 nM, single wells, read-out: inhibition rate): 27%
inhibition at 0.00078125 µM (RS4:11 cells; Homo sapiens, RS4-11, RS4:11, 0.78125 nM, single wells, read-out: inhibition rate): 67%
inhibition at 0.0015625 µM (RS4:11 cells; Homo sapiens, RS4-11, RS4:11, 1.5625 nM, single wells, read-out: inhibition rate): 95%
inhibition at 0.003125 µM (RS4:11 cells; Homo sapiens, RS4-11, RS4:11, 3.125 nM, single wells, read-out: inhibition rate): 98%
inhibition at 0.00625 µM (RS4:11 cells; Homo sapiens, RS4-11, RS4:11, 6.25 nM, single wells, read-out: inhibition rate): 100%
inhibition at 0.0125 µM (RS4:11 cells; Homo sapiens, RS4-11, RS4:11, 12.5 nM, single wells, read-out: inhibition rate): 100%
inhibition at 0.025 µM (RS4:11 cells; Homo sapiens, RS4-11, RS4:11, 25 nM, single wells, read-out: inhibition rate): 100%
inhibition at 0.05 µM (RS4:11 cells; Homo sapiens, RS4-11, RS4:11, 50 nM, single wells, read-out: inhibition rate): 100%
inhibition at 0.1 µM (RS4:11 cells; Homo sapiens, RS4-11, RS4:11, 100 nM, single wells, read-out: inhibition rate): 100%
inhibition at 0.2 µM (RS4:11 cells; Homo sapiens, RS4-11, RS4:11, 200 nM, single wells, read-out: inhibition rate): 100%
IC50 (RS4:11 cells; Homo sapiens, RS4-11, 48 h treatment, CellTiter-Glo, small-molecule inhibitors, cells marked (nM)): 0.5 ± 0.1 nM
raw luminescence reading (RS4:11 cells; 0.012207 nM, single wells): 473100 and 440900 and 421900 and 464800 and 440500 and 404600
raw luminescence reading (RS4:11 cells; 0.0244141 nM, single wells): 468000 and 467900 and 427500 and 463600 and 451400 and 411500
raw luminescence reading (RS4:11 cells; 0.0488281 nM, single wells): 464300 and 463300 and 420200 and 448100 and 441000 and 405800
raw luminescence reading (RS4:11 cells; 0.0976562 nM, single wells): 446400 and 453400 and 406000 and 426100 and 420400 and 382600
raw luminescence reading (RS4:11 cells; 0.195312 nM, single wells): 418900 and 420900 and 384800 and 390800 and 394900 and 350200
raw luminescence reading (RS4:11 cells; 0.390625 nM, single wells): 317400 and 330800 and 297800 and 297300 and 296900 and 256100
inhibition rate (RS4:11 cells; 0.390625 nM, single wells, listed as ABT199, 0.000390625 µM): 24% and 32% and 41%
raw luminescence reading (RS4:11 cells; 0.78125 nM, single wells): 141300 and 149000 and 125700 and 134100 and 136000 and 117900
inhibition rate (RS4:11 cells; 0.78125 nM, single wells, listed as ABT199, 0.00078125 µM): 66% and 71% and 69% and 73%
raw luminescence reading (RS4:11 cells; 1.5625 nM, single wells): 23070 and 25650 and 25890 and 29130 and 27640 and 29210
inhibition rate (RS4:11 cells; 1.5625 nM, single wells, listed as ABT199, 0.0015625 µM): 94% and 93%
raw luminescence reading (RS4:11 cells; 3.125 nM, single wells): 9731 and 10360 and 11130 and 12480 and 11890 and 12850
inhibition rate (RS4:11 cells; 3.125 nM, single wells, listed as ABT199, 0.003125 µM): 97%
raw luminescence reading (RS4:11 cells; 6.25 nM, single wells): 514.1 and 705.1 and 803.0 and 736.8 and 691.7 and 772.7
raw luminescence reading (RS4:11 cells; 12.5 nM, single wells): 355.5 and 246.5 and 256.3 and 381.9 and 264.2 and 272.2
raw luminescence reading (RS4:11 cells; 25 nM, single wells): 183.0 and 151.3 and 145.9 and 222.1 and 185.6 and 197.7
raw luminescence reading (RS4:11 cells; 50 nM, single wells): 222.3 and 165.6 and 152.2 and 216.6 and 173.6 and 195.6
average (raw viability reading) (A549 cells (control); A549, ABT199 0.3125 uM): 403300
inhibition rate (A549 cells (control); A549, ABT199 0.3125 uM, fraction, replicates): 0.1384 and 0.2199 and 0.2562 and 0.2483 and 0.2515 and 0.3247
raw viability reading (A549 cells (control); A549, ABT199 0.3125 uM, replicates): 394600 and 398800 and 397100 and 358300 and 457100 and 413900
average (raw viability reading) (A549 cells (control); A549, ABT199 0.625 uM): 437733
inhibition rate (A549 cells (control); A549, ABT199 0.625 uM, fraction, replicates): 0.1102 and 0.1614 and 0.1995 and 0.1861 and 0.1882 and 0.2042
raw viability reading (A549 cells (control); A549, ABT199 0.625 uM, replicates): 424700 and 431800 and 430700 and 422200 and 472100 and 444900
average (raw viability reading) (A549 cells (control); A549, ABT199 1.25 uM): 415750
inhibition rate (A549 cells (control); A549, ABT199 1.25 uM, fraction, replicates): 0.1437 and 0.2152 and 0.2434 and 0.2293 and 0.2263 and 0.2404
raw viability reading (A549 cells (control); A549, ABT199 1.25 uM, replicates): 401400 and 408900 and 410500 and 403000 and 454300 and 416400
average (raw viability reading) (A549 cells (control); A549, ABT199 2.5 uM): 279550
inhibition rate (A549 cells (control); A549, ABT199 2.5 uM, fraction, replicates): 0.4238 and 0.4647 and 0.4862 and 0.4847 and 0.4854 and 0.4937
raw viability reading (A549 cells (control); A549, ABT199 2.5 uM, replicates): 272600 and 273400 and 273000 and 268600 and 305700 and 284000
average (raw viability reading) (A549 cells (control); A549, ABT199 5 uM): 231967
inhibition rate (A549 cells (control); A549, ABT199 5 uM, fraction, replicates): 0.5341 and 0.5546 and 0.5723 and 0.5614 and 0.5684 and 0.5859
raw viability reading (A549 cells (control); A549, ABT199 5 uM, replicates): 226900 and 232700 and 229000 and 219700 and 247200 and 236300
average (raw viability reading) (A549 cells (control); A549, ABT199 10 uM): 181100
inhibition rate (A549 cells (control); A549, ABT199 10 uM, fraction, replicates): 0.6325 and 0.6605 and 0.666 and 0.6628 and 0.6649 and 0.6653
raw viability reading (A549 cells (control); A549, ABT199 10 uM, replicates): 177200 and 178900 and 177800 and 177600 and 195000 and 180100
average (raw viability reading) (A549 cells (control); A549, ABT199 20 uM): 174683
inhibition rate (A549 cells (control); A549, ABT199 20 uM, fraction, replicates): 0.6679 and 0.6686 and 0.6762 and 0.6713 and 0.6664 and 0.6741
raw viability reading (A549 cells (control); A549, ABT199 20 uM, replicates): 171800 and 174400 and 177000 and 172900 and 176200 and 175800
inhibition at 0.390625 µM (A549 cells (control); Homo sapiens, A549, control A549, ABT-199 0.390625 uM, replicate wells, read-out: inhibition rate): 26%
inhibition at 0.78125 µM (A549 cells (control); Homo sapiens, A549, control A549, ABT-199 0.78125 uM, replicate wells, read-out: inhibition rate): 33%
inhibition at 1.5625 µM (A549 cells (control); Homo sapiens, A549, control A549, ABT-199 1.5625 uM, replicate wells, read-out: inhibition rate): 61%
inhibition at 3.125 µM (A549 cells (control); Homo sapiens, A549, control A549, ABT-199 3.125 uM, replicate wells, read-out: inhibition rate): 75%
inhibition at 6.25 µM (A549 cells (control); Homo sapiens, A549, control A549, ABT-199 6.25 uM, replicate wells, read-out: inhibition rate): 76%
inhibition at 12.5 µM (A549 cells (control); Homo sapiens, A549, control A549, ABT-199 12.5 uM, replicate wells, read-out: inhibition rate): 81%
inhibition at 25 µM (A549 cells (control); Homo sapiens, A549, control A549, ABT-199 25 uM, replicate wells, read-out: inhibition rate): 87%
inhibition at 50 µM (A549 cells (control); Homo sapiens, A549, control A549, ABT-199 50 uM, replicate wells, read-out: inhibition rate): 93%
inhibition at 100 µM (A549 cells (control); Homo sapiens, A549, control A549, ABT-199 100 uM, replicate wells, read-out: inhibition rate): 98%
inhibition at 200 µM (A549 cells (control); Homo sapiens, A549, control A549, ABT-199 200 uM, replicate wells, read-out: inhibition rate): 99%
IC50 (A549 cells (control); Homo sapiens, A549, 48 h, CellTiter-Glo, n = 6, read-out: IC50 A549 control (original cells)): 1100 ± 200 nM
luminescence reading (raw, replicate wells) (A549 cells (control); [1]): 589100 and 474500 and 578500 and 498700 and 513300 and 511200
luminescence reading, everage (A549 cells (control); [1]): 527550
inhibition rate (A549 cells (control); control A549, ABT-199 0.390625 uM, replicate wells): 40% and 27% and 37% and 35% and 36%
luminescence reading (raw, replicate wells) (A549 cells (control); [2]): 528700 and 466700 and 517300 and 470700 and 495500 and 475500
luminescence reading, everage (A549 cells (control); [2]): 492400
inhibition rate (A549 cells (control); control A549, ABT-199 0.78125 uM, replicate wells): 41% and 35% and 38% and 40%
luminescence reading (raw, replicate wells) (A549 cells (control); [3]): 312000 and 314300 and 298800 and 314500 and 309000 and 290800
luminescence reading, everage (A549 cells (control); [3]): 306567
inhibition rate (A549 cells (control); control A549, ABT-199 1.5625 uM, replicate wells): 60% and 62% and 63%
luminescence reading (raw, replicate wells) (A549 cells (control); control A549, ABT-199 3.125 uM): 198800 and 204700 and 191700 and 191900 and 189900 and 188800
luminescence reading, everage (A549 cells (control); control A549, ABT-199 3.125 uM): 194300
inhibition rate (A549 cells (control); control A549, ABT-199 3.125 uM, replicate wells): 74%
luminescence reading (raw, replicate wells) (A549 cells (control); control A549, ABT-199 6.25 uM): 186800 and 193000 and 186700 and 177700 and 179700 and 186500
luminescence reading, everage (A549 cells (control); control A549, ABT-199 6.25 uM): 185067
inhibition rate (A549 cells (control); control A549, ABT-199 6.25 uM, replicate wells): 78% and 77%
luminescence reading (raw, replicate wells) (A549 cells (control); control A549, ABT-199 12.5 uM): 154400 and 153500 and 158000 and 148200 and 149400 and 149600
luminescence reading, everage (A549 cells (control); control A549, ABT-199 12.5 uM): 152183
inhibition rate (A549 cells (control); control A549, ABT-199 12.5 uM, replicate wells): 80%
luminescence reading (raw, replicate wells) (A549 cells (control); control A549, ABT-199 25 uM): 102900 and 103500 and 106000 and 102100 and 105400 and 102800
luminescence reading, everage (A549 cells (control); control A549, ABT-199 25 uM): 103783
luminescence reading (raw, replicate wells) (A549 cells (control); control A549, ABT-199 50 uM): 55930 and 54730 and 51960 and 49990 and 56070 and 56150
